The results in this text go back to patent publication US20240307374A1, “FORMULATION OF FURIN INHIBITOR FOR INHALATION” (BP ASSET V, INC., priority 2021, published 2024).

A word on the solubility: it is the concentration that dissolves in the medium under given conditions.

Holding throughout (assay type): physicochemical
Series [1] in a line: Approximate solubility at RT. The procedure: Four freeform isolation experiments were performed in different solvent with different acids. Solids were obtained in DCM/HCl and CHCl3/HCl system.
Approximately 2 mg solids were added into a 3-mL glass vial. Solvents in the following table were then added stepwise (50-50-200-700[…] for each step) into the vials and stirred until the solids were dissolved or a total volume of 1 mL was reached. The solubility results were used to guide the solvent selection in polymorph formation.

Series [2] can be described thus: Formulation development with NaCl. As to conditions: ~35 mg freeform Type D + ~9.6 mg citric acid + ~6.1 mg NaCl in water. The protocol:
The concentration of freeform in the suspension was 0.60 mg/mL (pH 3.8). […] The experiment was redone, and a clear solution (a little cloudy) was obtained immediately after adding 1 mL water into ˜32 mg/mL API+9.6 mg/mL critic acid, solid precipitated out after addition of NaCl.

The next series in a line: Solid state stability. Also noted: key to FC (form change): N: The form was not changed. To be noted: for Purity: initial purity 99.62%. The protocol: Approximately 30 mg of each solid sample was added to an HPLC vial (sealed by Parafilm© and poked with several pinholes) and then stored at 25° C./60% RH, 40° C./75% RH and 60° C. for 28 days.
After 1/3/7/14/28 days storage, solids were taken out for HPLC and XRPD to evaluate chemical and physical stability, respectively.

≈ marks a conversion by molar mass, not a printed value. Read-outs that look alike come from different tables or passages of the source.

Regarding `CC(=O)NCC1CCN(Cc2cc(Oc3ccc(N4CCN(CCC(=O)O)CC4)nc3)nc(-c3cc(Cl)cc(Cl)c3)c2)CC1` [Freeform Type A], the solubility in series [1] (1,4-dioxane, organic solvent or mixture, thermodynamic from solid, 1,4-Dioxane, RT, read-out: Solubility) was less than 1900 µg/mL; in series [1] (2-MeTHF, organic solvent or mixture, thermodynamic from solid, 2-MeTHF, RT, read-out: Solubility) it was less than 1700 µg/mL; in series [1] (ACN, organic solvent or mixture, thermodynamic from solid, ACN, RT, read-out: Solubility), less than 1900 µg/mL; in series [1] (Anisole, organic solvent or mixture, thermodynamic from solid, Anisole, RT, read-out: Solubility) it was less than 2000 µg/mL; in series [1] (CHCl3, RT, solvent for freeform isolation) it was “S < 1.2 mg/mL”; in series [1] (CHCl3, organic solvent or mixture, thermodynamic from solid, CHCl3, RT, read-out: Solubility), less than 2100 µg/mL. Besides, the solubility in series [1] (CPME, organic solvent or mixture, thermodynamic from solid, CPME, RT, read-out: Solubility) is less than 2000 µg/mL; in series [1] (DCM, organic solvent or mixture, thermodynamic from solid, DCM, RT, read-out: Solubility), less than 1800 µg/mL; in series [1] (DMSO, organic solvent or mixture, thermodynamic from solid, DMSO, RT, read-out: Solubility) it was 17000 to 34000 µg/mL (≈ 26.5 to 53 mM); in series [1] (EtOAc, organic solvent or mixture, thermodynamic from solid, EtOAc, RT, read-out: Solubility), less than 2000 µg/mL; in series [1] (EtOH, organic solvent or mixture, thermodynamic from solid, EtOH, RT, read-out: Solubility), 7300 to 22000 µg/mL (≈ 11.4 to 34.3 mM); in series [1] (IPA, organic solvent or mixture, thermodynamic from solid, IPA, RT, read-out: Solubility), 1500 to 1800 µg/mL (≈ 2.34 to 2.81 mM). The solubility was less than 1900 µg/mL in series [1] (IPAc, organic solvent or mixture, thermodynamic from solid, IPAc, RT, read-out: Solubility); less than 2100 µg/mL in series [1] (MIBK, organic solvent or mixture, thermodynamic from solid, MIBK, RT, read-out: Solubility); less than 1900 µg/mL in series [1] (MTBE, organic solvent or mixture, thermodynamic from solid, MTBE, RT, read-out: Solubility); greater than 40000 µg/mL in series [1] (MeOH, organic solvent or mixture, thermodynamic from solid, MeOH, RT, read-out: Solubility); 4000 to 8000 µg/mL (≈ 6.23 to 12.5 mM) in series [1] (THF, organic solvent or mixture, thermodynamic from solid, THF, RT, read-out: Solubility); less than 2100 µg/mL in series [1] (Toluene, organic solvent or mixture, thermodynamic from solid, Toluene, RT, read-out: Solubility). Moreover, the solubility in series [1] (acetone, organic solvent or mixture, thermodynamic from solid, Acetone, RT, read-out: Solubility) was less than 1900 µg/mL; in series [1] (n-Heptane, organic solvent or mixture, thermodynamic from solid, n-Heptane, RT, read-out: Solubility) it was less than 2200 µg/mL; in series [1] (water, thermodynamic from solid, H2O, RT, read-out: Solubility) it was less than 2000 µg/mL.
On to `CC(=O)NCC1CCN(Cc2cc(Oc3ccc(N4CCN(CCC(=O)O)CC4)nc3)nc(-c3cc(Cl)cc(Cl)c3)c2)CC1` [Freeform Type D], for which the pH in series [2] (24 hours) is 3.8. Besides, the “concentration of freeform in the suspension” value in series [2] (24 hours stirring) was 600 µg/mL. Further, the “degradation or form change (HPLC, XRPD)” value in “Solid state stability” (25° C./60% RH, 40° C./75% RH and 60° C. for 28 days) is “No significant degradation or form change”. Further, the “FC (form change)” value in “Solid state stability” (25° C./60% RH, 28 days) is reported as “N”; in “Solid state stability” (40° C./75% RH, 1 day) it was “N”; in “Solid state stability” (40° C./75% RH, 3 days), “N”; in the series “Solid state stability” (40° C./75% RH, 7 days), “N”; in the series “Solid state stability” (40° C./75% RH, 14 days) it was “N”; in the series “Solid state stability” (40° C./75% RH, 28 days) it was “N”. For the same compound, the “FC (form change)” value in “Solid state stability” (60° C., 1 day) was “N”; in “Solid state stability” (60° C., 3 days), “N”; in “Solid state stability” (60° C., 7 days), “N”; in “Solid state stability” (60° C., 14 days), “N”; in “Solid state stability” (60° C., 28 days) it was “N”. The Purity is listed as 99.6 area % in “Solid state stability” (25° C./60% RH, 28 days); 99.69 area % in the series “Solid state stability” (40° C./75% RH, 1 day); 99.56 area % in the series “Solid state stability” (40° C./75% RH, 3 days); 99.59 area % in the series “Solid state stability” (40° C./75% RH, 7 days); 99.69 area % in the series “Solid state stability” (40° C./75% RH, 14 days); 99.73 area % in the series “Solid state stability” (40° C./75% RH, 28 days). For the same compound, the Purity worked out at 99.74 area % in “Solid state stability” (60° C., 1 day); 99.57 area % in “Solid state stability” (60° C., 3 days); 99.51 area % in “Solid state stability” (60° C., 7 days); 99.62 area % in “Solid state stability” (60° C., 14 days); 99.66 area % in “Solid state stability” (60° C., 28 days).
